Results on three compounds are retold here after patent US8106168B2, “Metalloproteinase binding proteins” (Dyax Corp., priority 2005, dated 2012).

In test [1] the test system is activation of pro-MMP-2 by MMP-14 in PMA-activated HT-1080 cells. Kind of test: Gelatin zymogram, pro-MMP-2 activation in HT-1080 cells. Format: cell-based, human. Conditions: gelatin zymography of conditioned media after 3 days; antibodies 10 μg/ml, GM6001 10 μM. As to the method: The ability of anti-MMP-14 IgGs to inhibit the activation of pro-MMP-2 by MMP-14 was examined by gelatin zymogram experiments performed with PMA-activated HT-1080 cells. M0033-H07 and M0038-F01 were tested for their ability to inhibit MMP-14 in this assay. HT1080 cells (well-known to express MMP-14 and MMP-2) were seeded at 5×10^5 cells/well at Day 0. […] HT-1080 cells cultured in the presence of 20 ng/ml of PMA were used as a positive control.
After 3 days of incubation, conditioned media were collected and gelatinolytic activities were analyzed by gelatin zymography as described previously (Maquoi et al, J Biol Chem 2000; 275:11368-78). When HT-1080 cells are activated with a phorbol ester, pro-MMP-2 is activated into MMP-2 (lane 1).

Test [2] has as its system MDA-MB-231-GFP tumors. Kind of test: MDA-MB-231-GFP orthotopic breast tumor growth and metastasis.
Protocol: Human breast cancer cells MDA-MB-231 cells transfected with green fluorescent protein (MDA-MB-231-GFP) were inoculated into the mammary fat pad of female BALB/c nu/nu mice with Matrigel. Animals were monitored for tumor growth, and at week 4-5 post tumor cell inoculation, animals with tumors of 30-50 mm^3 were selected, randomized and divided into experimental groups. […] Tumor volume was measured weekly, starting at week 5. Additionally, tissue samples of lung, liver, and spleen were taken to assess metastasis.
Animals were inoculated with MDA-MB-231-GFP cells as described above, then selected and randomized, and divided into experimental groups of 8 animals each. […] Tumor volume was measured weekly, starting at week 5.
Tumor tissue samples were collected on day 35 post-treatment for immunohistochemical analysis. Paraffin-embedded tissue samples were sectioned, stained with CD31 (Santa Cruz Biotechnology Inc., Santa Cruz, Calif., USA), Ki-67 (DAKO, Carpinteria, Calif., USA), MAPK, FAK, phosphoMAPK or phosphoFAK antibodies, visualized with biotinylated secondary antibodies using a VECTASTAIN® ABC (Vector Laboratories Inc., Burlingame, Calif., USA), and lightly counterstained with haemotoxylin.
Test [3] concerns B16F1 melanoma tumors. Kind of test: B16F1 melanoma subcutaneous tumor growth. Format: in vivo, mouse. Conditions: M0038-F01 10, 1 or 0.1 mg/kg Q2d IP; doxorubicin 5 mg/kg weekly IP. The text has this:
B16F1 melanoma cells were implanted into Female C57/BL6 (CR) mice (4-6 Weeks old) mice by subcutaneous injection.

For test [4], the system named is PC3 prostate tumors. Kind of test: PC3 prostate tumor growth. Format: in vivo, mouse. Conditions: M0038-F01 10, 1 or 0.1 mg/kg Q2d IP; taxotere 10 mg/kg weekly IP; A2 10 mg/kg Q2d. From the text:
PC3 prostate cancer cells were implanted into male nude mice by subcutaneous injection.

Test [5] deals with MDA-MB-435 GFP tumors. Kind of test: MDA-MB-435 GFP orthotopic breast tumor growth. Type of test: in vivo, mouse. From the text: Fragments of MDA-MB-435 GFP (MDA-MB-435 cells expressing green fluorescent protein) tumors were transplanted by surgical orthotopic implantation (SOI) into the right second mammary gland. Treatment was started on day 15 after SOI when the volume of primary tumors reached about 85 mm^3.
Mice were sacrificed at day 61 after the start of the treatment and tumors (primary and metastases) were identified by fluorescent imaging. Additionally, primary tumors were excised and weighed. […] However, M0038-F01 was not effective in reducing lymph node or lung metastases in this experiment.

Where [6] appears, read: immunostaining of tumor tissue, day 35.
The mark [7] stands for this setting: immunostaining of tumor tissue, day 35 post-treatment, image analysis.

Molecules are shown by their SMILES.

As to `CNC(=O)[C@H](Cc1c[nH]c2ccccc12)NC(=O)[C@@H](CC(=O)NO)CC(C)C` [GM6001, reference compound], in test [1], the “pro-MMP-2 activation by MMP-14” value is reported as “completely abolished” and the pro-MMP-9 expression entry is “paradoxically stimulated”.
Regarding `COc1cccc2c1C(=O)c1c(O)c3c(c(O)c1C2=O)C[C@@](O)(C(=O)CO)C[C@@H]3O[C@H]1C[C@H](N)[C@H](O)[C@H](C)O1` [DOX, doxorubicin], in test [2] (M0038-F01 10 mg/kg Q2d IP, DOX 5 mg/kg weekly IP), the metastases to spleen result is “reduced in DOX and M0038-F01 treated animals, but the difference was not statistically significant”. In test [2] (M0038-F01 10 mg/kg Q2d IP, DOX 5 mg/kg weekly IP, compared to controls), the “lung and liver metastases” value is recorded as “statistically significant reduction”. Further, the “tumor growth (tumor volume)” value in test [2] (M0038-F01 or A2 10 mg/kg Q2d IP, DOX 5 mg/kg weekly IP, five weeks) is listed as “substantially inhibited”. In test [2] (setting [6]), the “CD31 and KI67 levels compared to vehicle and A2 controls” value was “slightly reduced”; the phospho-FAK level worked out at 4±1.2 A.U; the phospho-MAP kinase level stood at 5.8±1.9 A.U; the “total FAK level” value stood at 6±1 A.U. For the same compound, the “total MAP kinase level” value in test [2] (setting [6]) came to 5.8±1.9 A.U. In test [2] (setting [7]), this compound yielded a CD31 of 4.08 ± 1.28 and a Ki67 of 5.2 ± 0.84. The tumor growth result in test [3] is “effective in reducing tumor growth”.
On to `CC(=O)O[C@@]12CO[C@@H]1C[C@H](O)[C@@]1(C)C(=O)[C@H](O)C3=C(C)[C@@H](OC(=O)[C@H](O)[C@@H](NC(=O)OC(C)(C)C)c4ccccc4)C[C@@](O)([C@@H](OC(=O)c4ccccc4)[C@H]21)C3(C)C` [Taxotere, taxotere, reference compound], for which the “tumor growth (tumor volume)” value in test [4] is listed as “extremely effective”. For the same compound, the “Tumor Mass (±SD)” value in test [5] (10 mg/kg (F01 and A2 Q2d IP; taxotere QW×3 i.v.), excised primary tumor, day 61, * p≦0.05 compared to Control) was 0.59 ± 0.59*. Besides, the tumor volume entry in test [5] (M0038-F01 1 or 10 mg/kg Q2d IP, taxotere 10 mg/kg QW×3 i.v.) is on record as “reduction of tumor volume”.
